Legend:
HSP70 = test: RT-PCR for induction of heat shock protein gene transcription in BMDM; type: cell-based, mouse
Description: A half million mouse BMDM isolated from BALB/c, IFNα receptor knockout, or IFNγ knockout mice were incubated with ISS-ODN or M-ODN at a final concentration of 10 μg/ml. After 0, 1, 2, 4, 6, and 8 hours, total RNA was prepared and analyzed by RT-PCR (reverse transcription-polymerase chain reaction) for induction of gene transcription of heat shock proteins. The sequences of the primers used is as follows: […]

NF-κB = NF-κB activation in treated BMDM (EMSA); type: cell-based, mice
Description: The ODNs (ps-ss) used include an ISS-ODN with an active CpG motif (AACGTT), a methylated ISS-ODN at the ^5C of the CpG dinucleotide (AA*CGTT) and various control ODNs. These ODNs were incubated at concentrations of 0, 0.1, 0.3, or 1 ng/reaction. The po-ISS-ODN was incubated at concentration of 20, 50 or 100 ng/reaction. The po-ds-ISS-ODN was incubated at concentration of 0, 0.5, 1, 2, 5 or 10 ng/reaction. The bacterial or calf thymus DNAs were each incubated at concentration of 1, 2 or 5 ng/reaction. Electrophoretic gel mobility shift assay (EMSA) was performed as previously described. Chu et al. (1999) Immunity 11:721-731; and Li et al., 1999, supra). In vitro IKK kinase assays were performed using purified IKK derived from Sf9 insect cell lysates as was previously described. Zandi et al. (1998) Science 281:1360-1363.

[1] = tested on: bone marrow derived macrophages (BMDM); test: Northern blot of IL-6 and IL-12 mRNA in BMDM; type: cell-based, mice
Description: PCR were performed under the following conditions by appropriate cycling number (94° C. for 30 seconds; 65° C. for 30 seconds; and 68° C. for 30 seconds). PCR products were visualized by electrophoresis on 1.5% TAE agarose gels after being stained with ethidium bromide. BMDM isolated from either wild type or Ku 70^−/− mice were treated with ISS (10 μg/ml) or LPS (10 μg/ml) or left untreated for 6.5 hours. Total RNA was isolated and 10 μg of total RNA was separated on 1% agarose gel and then transferred onto a nylon membrane. The membrane was probed with [^32P]-labeled IL-6 or IL-12 or GAPDH cDNA followed by autoradiography, as described previously. Chu et al. (1999) Immunity 11:1.
BMDM (2.5×10^5/well) from wt, or Ku70^−/− and Ku80^−/− mice were treated with LPS (1 μg/ml), ISS-ODN (5 μg/ml) or M-ODN (5 μg/ml) for 24 hours. IL-6 (A) or IL-12 (B) levels in the supernatants were determined by ELISA. Results are means±S.D, of 5 separate experiments for wt and Ku70^−/− and 3 separate experiments for Ku80^−/− mice. (C) BMDM were incubated with LPS (10 μg/ml) or ISS-ODN (5 μg/ml) for 6.5 hours. Total RNA was isolated and analyzed for the presence of IL-6, IL-12 and GAPDH messages by a Northern blot assay, as described in Example 1. Results are means±S.D. of 5 separate experiments for wt and Ku70^−/− and 3 separate experiments for Ku80^−/− mice. […]

5′-TGACTGTGAACGTTCGAGATGA-3′ [ISS-ODN]
induction of HSP-70 gene transcription (HSP70; BMDM from IFN type 1 receptor knockout mice): did not result in induction of HSP-70
induction of inducible HSP-70 gene transcription (HSP70; BMDM, 10 μg/ml, 0-8 hours): induces inducible HSP-70
NF-κB activation, wt vs ATM-deficient BMDM (NF-κB; ATM-deficient BMDM): no differences were observed
NF-κB activation (NF-κB; DNA-PKcs-/- BMDM): impaired NF-κB activation
NF-κB activation (NF-κB; IKKβ-/- Tnfr-/- BMDM (absence of IKKβ)): prevented
induction of IL-6 and IL-12 mRNAs ([1]; DNA-PKcs-deficient BMDM): Little induction
induction of IL-6 and IL-12 mRNA (Northern blot) ([1]; Ku70-/- or Ku80-/- BMDM, 6.5 hours): lack of induction

From patent US6893821B2, “Agents that modulate DNA-PK activity and methods of use thereof” (The Regents of the University of California, priority 2000, dated 2005)
